Measured values as given in patent US20150313921A1, “Cancer Treatment Methods” (PLEDPHARMA AB, priority 2012, published 2015).
Like-named read-outs stand apart in the source and are kept apart here.

How the values were obtained:
[1] = tested on: infarct size; details: pigs; MnPLED 3 μmol/kg; cited from earlier work
[2] = cited from earlier work
[3] = pigs, ten minutes after injection; cited from earlier work
[4] = tested on: ovarian carcinoma A2780 cells; test: MTT viability assay, A2780 cells; details: for cytotoxic effect in A2780 cells: alone (MnDPDP: alone or with Dx 3 nM or 30 nM), 48 h, MTT; for EC50: Homo sapiens, A2780, 48 h
Procedure: A2780 cells were co-incubated with MnDPDP, DPDP, and/or Dx. The viability of cells was measured using the methylthiazoletetrazolium (MTT) assay. Briefly, 8000 cells were seeded per well on a 96-well plate and grown overnight under standards. Cells were then exposed for 48 hours to various concentrations of MnDPDP, DPDP, and/or Dx at 37° C. The viability of the cells was then assessed by adding 5 mg/ml MTT to a final concentration of 0.5 mg/ml and incubating cells for a further 4 hours at 37° C. The blue formazan that is formed by mitochondrial dehydrogenases of viable cells was then dissolved overnight at 37° C. by adding 10% SDS and 10 mM HCl to a final concentration of 5% SDS and 5 mM HCl. Finally, the absorbance of the solution was read at 570 nm with a reference at 670 nm in a microplate reader (SpectraMax 340; Molecular Devices, Sunnyvale, Calif.) connected to an Apple Macintosh computer running the program Softmax Pro V1.2.0 (Molecular Devices). Viability is expressed as percent absorbance (A570 nm-A670 nm) relative to the untreated control cells. All values were given as arithmetic means±SD for in vitro cell MTT viability data. In vitro responses of Dx, MnDPDP, and/or DPDP with regard to viability are presented as concentration-effect curves. […] From this analysis, the low and Q7 high pD2 values (negative log of the concentration of Dx that produces half of its maximal inhibition in the two phases, −logIC50) were calculated.

[5] = tested on: human non-small cell lung cancer (NSCLC) U1810 cells; test: MTT viability assay, U1810 cells; assay type: cell-based; details: for IC50: 48 h exposure, read-out: IC50 (concentration causing 50% inhibition of viability)
Procedure: The viability of cells was measured using the MTT assay. […] Cells were then exposed for 48 h to 1-1,000 μM DPDP (lot #RDL02090206) or MnDPDP (lot #02090106). […] The viability of U1810 cells in the presence of increasing concentrations of DPDP or MnDPDP is presented as concentration-response curves (mean±S.D.). The individual curves were fitted to the sigmoidal normalized response logistic equation (Graphpad Prism, version 5.02). From this analysis the concentrations causing 50% inhibition (IC50) of the test substances were calculated.

[6] = Mn2+ versus Zn2+
[7] = cited from earlier work; remark: listed apart in the source

## Cc1[nH+]cc(COP(=O)([O-])[O-])c(CN(CCN(CC(=O)[O-])Cc2c(COP(=O)([O-])O)c[nH+]c(C)c2O)CC(=O)[O-])c1O.[Mn].[Na+].[Na+].[Na+] [MnDPDP]
[1]
  effect on infarct size: did not reduce the infarct size
[2]; intravenous injection into humans
  administered manganese released: about 80%
[2]; man, for a considerable amount of time
  injected manganese that stays bound to the chelator: about 30%
[2]; shortly after intravenous injection in man
  injected MnDPDP transformed into MnPLED: about 30%
[3]
  replacement of manganese with zinc: all manganese has been replaced with zinc
[4]
  cytotoxic effect in A2780 cells: did not have any obvious cytotoxic effects
[5]
  IC50: 437 µM

## COc1cccc2c1C(=O)c1c(O)c3c(c(O)c1C2=O)C[C@@](O)(C(=O)CO)C[C@@H]3O[C@H]1C[C@H](N)[C@H](O)[C@H](C)O1 [Dx, Doxorubicin, reference compound]
[4]; read-out: pD2 (-logEC50), first phase (high pD2) of biphasic curve (converted)
  EC50: 0.00545 µM
[4]; read-out: pD2 (-logEC50), second phase (low pD2) of biphasic curve (converted)
  EC50: 0.225 µM

## Cc1ncc(COP(=O)(O)O)c(CN(CCN(CC(=O)O)Cc2c(COP(=O)(O)O)cnc(C)c2O)CC(=O)O)c1O [DPDP, N,N′-bis-(pyridoxal-5-phosphate)-ethylenediamine-N,N′-diacetic acid]
[6]
  Mn2+ dissociates more readily than Zn2+ (fold): about 1000 times
[4]; 30 μM, A2780 cells
  cancer cells killed: approximately 50%
[4]; 100 μM, A2780 cells
  cancer cells killed: killing almost all cells
[4]; DPDP 10 μM or 30 μM added to Dx, A2780 cells
  additive effect to the cytotoxic effect of Dx alone: did not reveal any obvious additive effect
[4]
  cytotoxic effect in A2780 cells: had cytotoxic effects
[5]; 48 h
  IC50 ratio between MnDPDP and DPDP (times more potent than MnDPDP): 17 times
[5]
  IC50: 52.8 µM

## Cc1ncc(CO)c(CN(CCN(CC(=O)O)Cc2c(CO)cnc(C)c2O)CC(=O)O)c1O [PLED, N,N′-dipyridoxyl ethylenediamine-N,N′-diacetic acid]
[7]; Mn2+
  stability constant with Mn2+: 12.56 logK
[7]; Zn2+
  stability constant with Zn2+: 16.68 logK
[6]
  Mn2+ dissociates more readily than Zn2+ (fold): about 1000 times
